In patent USRE50663E1, “Heterocycle derivatives as pesticides” (Bayer Aktiengesellschaft, priority 2017, dated 2025):

Legend:
Type in all cases: in vivo
[1] = tested on: adult cat fleas (Ctenocephalides felis); assay: Ctenocephalides felis oral test; conditions: 48 h, 100 ppm in citrated cattle blood, after 2 days, read-out: efficacy (kill)
Method: Solvent: dimethyl sulfoxide
To produce a suitable active compound formulation, 10 mg of active compound are mixed with 0.5 ml of dimethyl sulfoxide. Dilution with citrated cattle blood gives the desired concentration.
About 20 unfed adult cat fleas (Ctenocephalides felis) are placed into a chamber which is closed at the top and bottom with gauze. A metal cylinder whose bottom end is closed with parafilm is placed onto the chamber. The cylinder contains the blood/active compound formulation, which can be imbibed by the fleas through the parafilm membrane.
After 2 days, the kill in % is determined. 100% means that all of the fleas have been killed; 0% means that none of the fleas have been killed.

[2] = tested on: larvae of the mustard beetle (Phaedon cochleariae); assay: Phaedon cochleariae spray test; conditions: foliar, 168 h, 100 g/ha, after 7 days, Chinese cabbage leaf discs, read-out: efficacy
Method: (§1) Solvent: 78.0 parts by weight of acetone • • 1.5 parts by weight of dimethylformamide
(§2) Emulsifier: alkylaryl polyglycol ether
(§3) To produce a suitable active compound formulation, 1 part by weight of active compound is dissolved with the specified parts by weight of solvent and made up to the desired concentration with water containing an emulsifier concentration of 1000 ppm. To produce further test concentrations, the formulation is diluted with emulsifier-containing water.
Discs of Chinese cabbage leaves (Brassica pekinensis) are sprayed with an active compound formulation of the desired concentration and, after drying, populated with larvae of the mustard beetle (Phaedon cochleariae).
After 7 days, the efficacy in % is determined. 100% means that all the beetle larvae have been killed; 0% means that no beetle larvae have been killed.

[3] = tested on: greenhouse red spider mite (Tetranychus urticae); assay: Tetranychus urticae spray test, OP-resistant; conditions: 20 g/ha, after 6 days, bean leaf discs
Method: as §1, §2, §3
Discs of bean leaves (Phaseolus vulgaris) infested with all stages of the greenhouse red spider mite (Tetranychus urticae) are sprayed with an active compound formulation of the desired concentration.
After 6 days, the efficacy in % is determined. 100% means that all the spider mites have been killed; 0% means that no spider mites have been killed.

[4] = tested on: green peach aphid (Myzus persicae); assay: Myzus persicae spray test; conditions: foliar, 120 h, 100 g/ha, after 5 days, Chinese cabbage leaf discs, read-out: efficacy
Method: Solvent: 78 parts by weight of acetone • • 1.5 parts by weight of dimethylformamide
as §2, §3
Discs of Chinese cabbage leaves (Brassica pekinensis) infested by all stages of the green peach aphid (Myzus persicae) are sprayed with an active compound formulation of the desired concentration.
After 5 days, the efficacy in % is determined. 100% means that all the aphids have been killed; 0% means that no aphids have been killed.

[5] = tested on: caterpillars of the fall armyworm (Spodoptera frugiperda); assay: Spodoptera frugiperda spray test; conditions: foliar, 168 h, 100 g/ha, after 7 days, maize leaf discs, read-out: efficacy
Method: as §1, §2, §3
Leaf discs of maize (Zea mays) are sprayed with an active compound formulation of the desired concentration and, after drying, populated with caterpillars of the fall armyworm (Spodoptera frugiperda).
After 7 days, the efficacy in % is determined. 100% means that all the caterpillars have been killed; 0% means that no caterpillar has been killed.

[6] = tested on: caterpillars of the armyworm (Spodoptera frugiperda); assay: Comparative Spodoptera frugiperda spray test (SPODFR); conditions: 168 h, 7 dat, read-out: % efficacy
Method: (§4) Solvent: 14 parts by weight of dimethylformamide
as §2
as §3, with “water. If the addition of ammonium salts or/and penetrants is required, these are each added in a concentration of 1000 ppm to the formulation solution.” for “water.”
Cotton leaves (Gossypium hirsutum) are sprayed with an active ingredient formulation of the desired concentration and populated with caterpillars of the armyworm (Spodoptera frugiperda).
(§5) After the desired time, the kill in % is determined. 100% means that all caterpillars have been killed; 0% means that none of the caterpillars have been killed.

[7] = tested on: larvae of the diamondback moth (Plutella xylostella); assay: Comparative Plutella xylostella spray test (PLUTMA); conditions: 168 h, 7 dat, read-out: % efficacy
Method: as §4, §2
as §3, with “water. If the addition of ammonium salts or/and penetrants is required, these are each added in a concentration of 1000 ppm to the formulation solution.” for “water.”
Cabbage leaves (Brassica oleracea) are sprayed with an active ingredient formulation of the desired concentration and infected with larvae of the diamondback moth (Plutella xylostella).
as §5

[8] = tested on: caterpillars of the cotton bollworm (Heliothis armigera); assay: Comparative Heliothis armigera spray test (HELIAR); conditions: Helicoverpa armigera, 168 h, 7 dat, read-out: % efficacy
Method: as §4, §2
as §3, with “water. If the addition of ammonium salts or/and penetrants is required, these are each added in a concentration of 1000 ppm to the formulation solution.” for “water.”
Cotton plants (Gossypium hirsutum) are sprayed with an active compound formulation of the desired concentration and, after drying, populated with caterpillars of the cotton bollworm (Heliothis armigera).
as §5

[9] = tested on: caterpillars of the armyworm (Spodoptera frugiperda); assay: Comparative Spodoptera frugiperda drench test (SPODFR D); conditions: soil, 336 h, 14 dat, read-out: % efficacy
Method: (§6) Solvent: 7 parts by weight of dimethylformamide
(§7) Emulsifier: 2 parts by weight of alkylaryl polyglycol ether
(§8) To produce a suitable active ingredient formulation, 1 part by weight of active ingredient is mixed with the specified amounts of solvent and emulsifier, and the concentrate is diluted with water to the desired concentration, it being necessary to take into account the volume of soil which is drenched. It should be ensured that a concentration of 40 ppm of emulsifier in the soil is not exceeded. To produce further test concentrations, water is used for dilution.
Maize plants (Zea mays) in pots of soil are watered with an active ingredient formulation of the desired concentration and infected with caterpillars of the armyworm (Spodoptera frugiperda).
as §5

[10] = tested on: green peach aphid (Myzus persicae); assay: Comparative Myzus persicae spray test (MYZUPE); conditions: 144 h, 6 dat, read-out: % efficacy
Method: as §4, §2
as §3, with “water. If the addition of ammonium salts or/and penetrants is required, these are each added in a concentration of 1000 ppm to the formulation solution.” for “water.”
Bell pepper plants (Capsicum annuum) severely infested with the green peach aphid (Myzus persicae) are treated by spraying with the active ingredient formulation in the desired concentration.
After the desired time, the kill in % is determined. 100% means that all the animals have been killed; 0% means that no animals have been killed.

[11] = tested on: green peach aphid (Myzus persicae); assay: Comparative Myzus persicae drench test (MYZUPE D); conditions: soil, 240 h, 10 dat, read-out: % efficacy
Method: as §6, §7, §8
Savoy cabbage (Brassica oleracea) in pots with soil and infested by all stages of the green peach aphid (Myzus persicae) is watered with an active ingredient formulation of the desired concentration.
After the desired period of time, the efficacy in % is determined. 100% means that all the aphids have been killed; 0% means that no aphids have been killed.

[12] = tested on: L2 larvae of the banded cucumber beetle (Diabrotica balteata); assay: Comparative Diabrotica balteata drench test (DIABBA D); conditions: soil, 192 h, 8 dat, read-out: % efficacy
Method: as §6, §7, §8
In each case 5 maize corns (Zea mays) are sown into pots filled with earth, and the next day the pots are watered with the active compound preparation of the desired concentration. After one day, about 25 L2 larvae of the banded cucumber beetle (Diabrotica balteata) are added.
After 8 days, the efficacy in % is determined. 100% means that all 5 plants have germinated and grown; 0% means that none of the plants has emerged.

[13] = tested on: larvae of the mustard beetle (Phaedon cochleariae); assay: Comparative Phaedon cochleariae spray test (PHAECO); conditions: 168 h, 7 dat, read-out: % efficacy
Method: as §4, §2
as §3, with “water. If the addition of ammonium salts or/and penetrants is required, these are each added in a concentration of 1000 ppm to the formulation solution.” for “water.”
Cabbage leaves (Brassica oleracea) are sprayed with an active ingredient formulation of the desired concentration and populated with larvae of the mustard beetle (Phaedon cochleariae).
After the desired time, the kill in % is determined. 100% means that all the beetle larvae have been killed; 0% means that no beetle larvae have been killed.

Row | SMILES | pest or weed control at 100 ppm [1] | pest or weed control at 100 g/ha [2] | efficacy [3] | pest or weed control at 100 g/ha [4] | pest or weed control at 100 g/ha [5] | Emax at 0.16 ppm [6] | Emax at 0.16 ppm [7] | Emax at 0.16 ppm [8] | Emax at 0.16 ppm [9] | Emax at 0.8 ppm [10] | Emax at 0.8 ppm [11] | Emax at 0.8 ppm ([12]; 0.8 ppm) | Emax at 4 ppm ([12]; 4 ppm) | Emax at 0.8 ppm ([13]; 0.8 ppm) | Emax at 4 ppm ([13]; 4 ppm)
1 | CCS(=O)(=O)c1c(-c2nc3cc(C(F)(F)F)cnc3n2C)nc2cc(C(F)C3CC3)ccn12 (stereo not drawn) [Example I-22] | 100% | 100% | 90% | 90% | 100% |  |  |  |  |  |  |  |  |  | 
2 | CCS(=O)(=O)c1c(-c2nc3cc(C(F)(F)F)cnc3n2C)nc2cc(C3CC3)ccn12 [known from WO 2016/162318, reference compound] |  |  |  |  |  | 65% | 45% | 10% | 40% | 0% | 0% | 30% | 70% | 0% | 60%
